{
  "source": "patent US7591979B2",
  "about": "(priority 2003, dated 2009)",
  "test_system": "naturally-occurring algae from water samples of the Clinch River",
  "type": "cell-based, naturally occurring freshwater algae",
  "note": "Several values for one entry are separate records, joined by “and”; a condition that tells them apart may be missing. Identical values can stand only once.",
  "data": [
    {"smiles": "COP(=S)(OC)Oc1ccc([N+](=O)[O-])cc1", "note": "[MPt, Methyl Parathion]", "values": [
      {"measurement": "Percentage (%) decrease in photochemical yield", "result": "−5.41% and −7.80% and −3.19%"}
    ]}
  ]
}
